System: 349418-098-R-PDC complex spheroid viability
Experiment: Anticancer human tumor 349418-098-R-PDC patient-derived lung adenocarcinoma cell line growth inhibition
Settings: for IC50: curve of first compound; for viability, T/C: stronger effect = lower value
In short: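 Multicellular complex spheroids of tumor cells with human endothelial cells (HUVEC) and mesenchymal stem cells; the LSD1 inhibitor iadademstat was combined with standard-of-care or investigational agents. Top concentration at or near clinical Cmax, half-log dilutions; final DMSO ≤0.25%.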

[1] = second compound 0.1 µM, first compound 0.000949 µM
[2] = second compound 0.1 µM, first compound 0.003 µM
[3] = second compound 0.1 µM, first compound 0.00949 µM
[4] = second compound 0.1 µM, first compound 0.03 µM
[5] = second compound 0.1 µM, first compound 0.0949 µM
[6] = second compound 0.1 µM, first compound 0.3 µM
[7] = second compound 0.316 µM, first compound 0.000949 µM
[8] = second compound 0.316 µM, first compound 0.003 µM
[9] = second compound 0.316 µM, first compound 0.00949 µM
[10] = second compound 0.316 µM, first compound 0.03 µM
[11] = second compound 0.316 µM, first compound 0.0949 µM
[12] = second compound 0.316 µM, first compound 0.3 µM
[13] = second compound 1 µM, first compound 0.000949 µM
[14] = second compound 1 µM, first compound 0.003 µM
[15] = second compound 1 µM, first compound 0.00949 µM
[16] = second compound 1 µM, first compound 0.03 µM
[17] = second compound 1 µM, first compound 0.0949 µM
[18] = second compound 1 µM, first compound 0.3 µM
[19] = second compound 3.16 µM, first compound 0.000949 µM
[20] = second compound 3.16 µM, first compound 0.003 µM
[21] = second compound 3.16 µM, first compound 0.00949 µM
[22] = second compound 3.16 µM, first compound 0.03 µM
[23] = second compound 3.16 µM, first compound 0.0949 µM
[24] = second compound 3.16 µM, first compound 0.3 µM
[25] = second compound 10 µM, first compound 0.000949 µM
[26] = second compound 10 µM, first compound 0.003 µM
[27] = second compound 10 µM, first compound 0.00949 µM
[28] = second compound 10 µM, first compound 0.03 µM
[29] = second compound 10 µM, first compound 0.0949 µM
[30] = second compound 10 µM, first compound 0.3 µM
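Note: spheroids exposed to agents for seven days before readout.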
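Throughout, for viability, T/C: 100% = DMSO vehicle control wells.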

Q: `CC[C@@]1(O)C(=O)OCc2c1cc1n(c2=O)Cc2cc3c(CN(C)C)c(O)ccc3nc2-1` + NC1CCC(NC2CC2c2ccccc2)CC1 was tested. Which IC50 (second compound 0.1 µM) did it give?
A: 2.04 nM

Q: And the IC50 (second compound 0.316 µM)?
A: 1.94 nM

Q: And the IC50 (second compound 1 µM)?
A: 2.12 nM

Q: And the IC50 (second compound 3.16 µM)?
A: 2.23 nM

Q: What about the IC50 (second compound 10 µM) of the same compound?
A: 1.87 nM

Q: What about the viability, T/C (second compound 0.1 µM, first compound 0.000316 µM) of the same compound?
A: 98.8%

Q: What about the viability, T/C (second compound 0.1 µM, first compound 0.001 µM) of the same compound?
A: 86.5%

Q: And the viability, T/C (second compound 0.1 µM, first compound 0.00316 µM)?
A: 27.2%

Q: What about the viability, T/C (second compound 0.1 µM, first compound 0.01 µM) of the same compound?
A: 8.74%

Q: What about the viability, T/C (second compound 0.1 µM, first compound 0.0316 µM) of the same compound?
A: 4.98%

Q: What about the viability, T/C (second compound 0.1 µM, first compound 0.1 µM) of the same compound?
A: 3.65%

Q: What about the viability, T/C (second compound 0.316 µM, first compound 0.000316 µM) of the same compound?
A: 113%

Q: What about the viability, T/C (second compound 0.316 µM, first compound 0.001 µM) of the same compound?
A: 78.6%

Q: What about the viability, T/C (second compound 0.316 µM, first compound 0.00316 µM) of the same compound?
A: 28.8%

Q: And the viability, T/C (second compound 0.316 µM, first compound 0.01 µM)?
A: 8.08%

Q: What about the viability, T/C (second compound 0.316 µM, first compound 0.0316 µM) of the same compound?
A: 5.09%

Q: And the viability, T/C (second compound 0.316 µM, first compound 0.1 µM)?
A: 3.1%

Q: And the viability, T/C (second compound 1 µM, first compound 0.000316 µM)?
A: 98.9%

Q: What about the viability, T/C (second compound 1 µM, first compound 0.001 µM) of the same compound?
A: 84.8%

Q: And the viability, T/C (second compound 1 µM, first compound 0.00316 µM)?
A: 31.4%

Q: And the viability, T/C (second compound 1 µM, first compound 0.01 µM)?
A: 8.25%

Q: What about the viability, T/C (second compound 1 µM, first compound 0.0316 µM) of the same compound?
A: 5.11%

Q: And the viability, T/C (second compound 1 µM, first compound 0.1 µM)?
A: 2.94%

Q: And the viability, T/C (second compound 3.16 µM, first compound 0.000316 µM)?
A: 91.6%

Q: What about the viability, T/C (second compound 3.16 µM, first compound 0.001 µM) of the same compound?
A: 83.5%

Q: What about the viability, T/C (second compound 3.16 µM, first compound 0.00316 µM) of the same compound?
A: 35.2%

Q: And the viability, T/C (second compound 3.16 µM, first compound 0.01 µM)?
A: 9.52%

Q: And the viability, T/C (second compound 3.16 µM, first compound 0.0316 µM)?
A: 5.25%

Q: What about the viability, T/C (second compound 3.16 µM, first compound 0.1 µM) of the same compound?
A: 3.35%

Q: What about the viability, T/C (second compound 10 µM, first compound 0.000316 µM) of the same compound?
A: 95%

Q: What about the viability, T/C (second compound 10 µM, first compound 0.001 µM) of the same compound?
A: 71%

Q: And the viability, T/C (second compound 10 µM, first compound 0.00316 µM)?
A: 31.8%

Q: And the viability, T/C (second compound 10 µM, first compound 0.01 µM)?
A: 12%

Q: What about the viability, T/C (second compound 10 µM, first compound 0.0316 µM) of the same compound?
A: 4.67%

Q: And the viability, T/C (second compound 10 µM, first compound 0.1 µM)?
A: 3.15%

Q: What does the source list for `CCc1c2c(nc3ccc(O)cc13)-c1cc3c(c(=O)n1C2)COC(=O)[C@]3(O)CC` + NC1CCC(NC2CC2c2ccccc2)CC1?
A: IC50 (second compound 0.1 µM): < 0.949 nM; IC50 (second compound 0.316 µM): < 0.949 nM; IC50 (second compound 1 µM): < 0.949 nM; IC50 (second compound 3.16 µM): < 0.949 nM; IC50 (second compound 10 µM): < 0.949 nM; viability, T/C [1]: 4.09%; viability, T/C [2]: 2.43%; viability, T/C [3]: 2.12%; viability, T/C [4]: 1.2%; viability, T/C [5]: 1.37%; viability, T/C [6]: 1.52%; viability, T/C [7]: 3.85%; viability, T/C [8]: 2.61%; viability, T/C [9]: 2.07%; viability, T/C [10]: 1.29%; viability, T/C [11]: 1.05%; viability, T/C [12]: 1.44%; viability, T/C [13]: 4.08%; viability, T/C [14]: 2.65%; viability, T/C [15]: 1.89%; viability, T/C [16]: 1.41%; viability, T/C [17]: 1.14%; viability, T/C [18]: 1.59%; viability, T/C [19]: 3.68%; viability, T/C [20]: 2.54%; viability, T/C [21]: 1.99%; viability, T/C [22]: 1.37%; viability, T/C [23]: 1.05%; viability, T/C [24]: 1.61%; viability, T/C [25]: 3.85%; viability, T/C [26]: 2.63%; viability, T/C [27]: 2.13%; viability, T/C [28]: 1.59%; viability, T/C [29]: 1.21%; viability, T/C [30]: 1.47%

Q: Which results are given for `COc1cc(C2c3cc4c(cc3C(OC3OC5COC(C)OC5C(O)C3O)C3COC(=O)C23)OCO4)cc(OC)c1O` (stereo not given) + NC1CCC(NC2CC2c2ccccc2)CC1?
A: IC50 (second compound 0.1 µM): 79.5 nM; IC50 (second compound 0.316 µM): 89.9 nM; IC50 (second compound 1 µM): 86.5 nM; IC50 (second compound 3.16 µM): 85.8 nM; IC50 (second compound 10 µM): 57.1 nM; viability, T/C [3]: 105%; viability, T/C [4]: 83.1%; viability, T/C [5]: 44.7%; viability, T/C [6]: 14.6%; viability, T/C (second compound 0.1 µM, first compound 0.949 µM): 6.37%; viability, T/C (second compound 0.1 µM, first compound 3 µM): 4.96%; viability, T/C [9]: 91.9%; viability, T/C [10]: 100%; viability, T/C [11]: 47.7%; viability, T/C [12]: 15.1%; viability, T/C (second compound 0.316 µM, first compound 0.949 µM): 6.33%; viability, T/C (second compound 0.316 µM, first compound 3 µM): 5.43%; viability, T/C [15]: 108%; viability, T/C [16]: 91.5%; viability, T/C [17]: 45.6%; viability, T/C [18]: 16%; viability, T/C (second compound 1 µM, first compound 0.949 µM): 6.74%; viability, T/C (second compound 1 µM, first compound 3 µM): 5.14%; viability, T/C [21]: 106%; viability, T/C [22]: 86.4%; viability, T/C [23]: 47.6%; viability, T/C [24]: 14.2%; viability, T/C (second compound 3.16 µM, first compound 0.949 µM): 6.91%; viability, T/C (second compound 3.16 µM, first compound 3 µM): 5.13%; viability, T/C [27]: 89.6%; viability, T/C [28]: 67%; viability, T/C [29]: 37.2%; viability, T/C [30]: 13.8%; viability, T/C (second compound 10 µM, first compound 0.949 µM): 6.9%; viability, T/C (second compound 10 µM, first compound 3 µM): 5.24%

Q: How did the IC50 (second compound 0.1 µM) turn out when `Nc1ccn(C2OC(CO)C(O)C2(F)F)c(=O)n1` (stereo not given) + NC1CCC(NC2CC2c2ccccc2)CC1 was run?
A: < 0.949 nM

Q: And the IC50 (second compound 0.316 µM)?
A: < 0.949 nM

Q: What about the IC50 (second compound 1 µM) of the same compound?
A: < 0.949 nM

Q: What about the IC50 (second compound 3.16 µM) of the same compound?
A: < 0.949 nM

Q: What about the IC50 (second compound 10 µM) of the same compound?
A: < 0.949 nM

Q: And the viability, T/C [1]?
A: 4.87%

Q: What about the viability, T/C [2] of the same compound?
A: 4.56%

Q: What about the viability, T/C [3] of the same compound?
A: 4.21%

Q: What about the viability, T/C [4] of the same compound?
A: 3.79%

Q: And the viability, T/C [5]?
A: 4%

Q: And the viability, T/C [6]?
A: 3.98%

Q: What about the viability, T/C [7] of the same compound?
A: 4.61%

Q: And the viability, T/C [8]?
A: 4.85%

Q: And the viability, T/C [9]?
A: 4.32%

Q: And the viability, T/C [10]?
A: 4.15%

Q: What about the viability, T/C [11] of the same compound?
A: 4.03%

Q: And the viability, T/C [12]?
A: 3.47%

Q: What about the viability, T/C [13] of the same compound?
A: 4.81%

Q: What about the viability, T/C [14] of the same compound?
A: 4.98%

Q: And the viability, T/C [15]?
A: 5.25%

Q: What about the viability, T/C [16] of the same compound?
A: 4.25%

Q: And the viability, T/C [17]?
A: 3.86%

Q: And the viability, T/C [18]?
A: 3.77%

Q: What about the viability, T/C [19] of the same compound?
A: 5.14%

Q: What about the viability, T/C [20] of the same compound?
A: 4.79%

Q: What about the viability, T/C [21] of the same compound?
A: 5.19%

Q: What about the viability, T/C [22] of the same compound?
A: 4.55%

Q: And the viability, T/C [23]?
A: 4.08%

Q: And the viability, T/C [24]?
A: 3.79%

Q: What about the viability, T/C [25] of the same compound?
A: 4.89%

Q: And the viability, T/C [26]?
A: 5.31%

Q: What about the viability, T/C [27] of the same compound?
A: 4.83%

Q: And the viability, T/C [28]?
A: 4.8%

Q: What about the viability, T/C [29] of the same compound?
A: 4.86%

Q: And the viability, T/C [30]?
A: 3.79%

Reference: PubChem BioAssay AID1918936 (Molecular Pharmacology Branch, DTP, NCI, 2023)
